Data taken from patent US7786141B2 (Vertex Pharmaceuticals Incorporated, priority 2004, dated 2010).

What was measured:
M4 muscarinic receptor = target: T1, M4 muscarinic receptor (Homo sapiens, UniProt P08173); assay: Functional mobilization of intracellular calcium (FLIPR) in M4-CHO cells; type: cell-based; conditions: Table 4; for Emax: 100% efficacy is the maximum response obtained with the Carbachol control; for M4 Activity: M4 receptor, calcium mobilization (FLIPR)
T1 construct: expressed in transfected cells; host or cells: CHO (M4-CHO)
T1 sequence (P08173 1-479): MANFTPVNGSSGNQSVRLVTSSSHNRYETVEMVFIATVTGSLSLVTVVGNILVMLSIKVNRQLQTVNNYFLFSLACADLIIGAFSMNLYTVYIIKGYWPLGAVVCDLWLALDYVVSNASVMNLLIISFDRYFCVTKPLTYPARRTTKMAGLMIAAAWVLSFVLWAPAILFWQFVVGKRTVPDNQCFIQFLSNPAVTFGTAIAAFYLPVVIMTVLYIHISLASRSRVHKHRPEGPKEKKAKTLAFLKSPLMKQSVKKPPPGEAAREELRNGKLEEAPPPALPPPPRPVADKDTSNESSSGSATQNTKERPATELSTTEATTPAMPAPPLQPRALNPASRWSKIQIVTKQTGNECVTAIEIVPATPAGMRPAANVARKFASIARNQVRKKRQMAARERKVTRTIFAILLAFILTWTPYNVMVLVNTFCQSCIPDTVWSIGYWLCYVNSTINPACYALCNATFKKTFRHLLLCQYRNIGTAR
How it was run: (§1)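 CHO cells stably expressing human M1 or M4 receptor were loaded with Fluo-3 AM (or Calcium 3 dye) in Hepes-buffered saline, pH 7.4, with 1 mM probenecid, 0.5% final DMSO. Agonist mode: compound added directly; antagonist mode: 15 min preincubation before carbachol at EC80. FLIPR fluorescence recorded 60 sec.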

M1 muscarinic receptor = target: T2, M1 muscarinic receptor (Homo sapiens, UniProt P11229); assay: Functional mobilization of intracellular calcium (FLIPR) in M1-CHO cells; type: cell-based; conditions: Table 4; for Emax: 100% efficacy is the maximum response obtained with the Carbachol control; for M1 Activity: M1 receptor, calcium mobilization (FLIPR)
T2 construct: expressed in transfected cells; host or cells: CHO (M1-CHO)
T2 sequence (P11229 1-460): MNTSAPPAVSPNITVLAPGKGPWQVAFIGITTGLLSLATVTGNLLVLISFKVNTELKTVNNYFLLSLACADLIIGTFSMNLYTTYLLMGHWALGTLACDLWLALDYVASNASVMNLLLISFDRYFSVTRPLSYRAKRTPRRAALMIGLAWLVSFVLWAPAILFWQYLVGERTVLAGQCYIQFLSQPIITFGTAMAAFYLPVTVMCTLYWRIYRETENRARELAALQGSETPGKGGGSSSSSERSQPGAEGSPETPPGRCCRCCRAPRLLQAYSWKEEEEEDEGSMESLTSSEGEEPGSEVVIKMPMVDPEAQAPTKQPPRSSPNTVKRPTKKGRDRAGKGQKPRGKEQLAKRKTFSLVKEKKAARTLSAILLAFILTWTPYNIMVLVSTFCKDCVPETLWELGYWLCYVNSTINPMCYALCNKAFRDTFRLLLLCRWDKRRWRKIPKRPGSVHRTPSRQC
How it was run: as §1

Structure (SMILES)	Emax (M4 muscarinic receptor)	M4 Activity (M4 muscarinic receptor)	Emax (M1 muscarinic receptor)	M1 Activity (M1 muscarinic receptor)
CCOC(=O)N1CCC(N2CCC3(CC2)CN(c2cncnc2)c2ccccc23)CC1 [compound 905]	25 to 100%	xxx (activity was measured to be less than 2.0 μM)	25 to 100%	xxx (activity was measured to be less than 2.0 μM)
CCOC(=O)N1CCC(N2CCC3(CC2)CN(C(C)=O)c2c(-c4cccc(C)c4)cccc23)CC1 [compound 907]	< 25%	x (activity was measured to be greater than 5.0 μM)	25 to 100%	x (activity was measured to be greater than 5.0 μM)
CCOC(=O)N1CCC(N2CCC3(CC2)CN(c2ccc(OC)cc2)c2ccc(F)cc23)CC1 [compound 908]	25 to 100%	xxx (activity was measured to be less than 2.0 μM)	25 to 100%	xxx (activity was measured to be less than 2.0 μM)
CCCOC(=O)N1CCC(N2CCC3(CC2)CN(C(C)=O)c2ccccc23)CC1 [compound 910]	< 25%	xx (activity was measured to be between 2.0 μM and 5.0 μM)	25 to 100%	xxx (activity was measured to be less than 2.0 μM)
CCOC(=O)N1CCC(N2CCC3(CC2)CN(C(C)=O)c2c(-c4ccccc4C)cccc23)CC1 [compound 911]	< 25%	x (activity was measured to be greater than 5.0 μM)	< 25%	x (activity was measured to be greater than 5.0 μM)
CC(=O)N[C@H]1CCC2(CCN(C3CCN(C(=O)OC(C)(C)C)CC3)CC2)c2ccccc21 [compound 912]	< 25%	x (activity was measured to be greater than 5.0 μM)	25 to 100%	xxx (activity was measured to be less than 2.0 μM)
CC(=O)N1CC2(CCN(C[C@@H]3CCN(c4cnccn4)C3)CC2)c2c(C)cccc21 [compound 913]	< 25%	x (activity was measured to be greater than 5.0 μM)	25 to 100%	x (activity was measured to be greater than 5.0 μM)
CN(C)C(=O)N1CC2(CCN(C3CCN(c4cnc5ccccc5n4)CC3)CC2)c2cc(F)ccc21 [compound 914]	25 to 100%	xxx (activity was measured to be less than 2.0 μM)	25 to 100%	xxx (activity was measured to be less than 2.0 μM)
O=C1CC2(CCN(CC3CC4C=CC3C4)CC2)c2ccc(Cl)cc21 (stereo not shown) [compound 915]	25 to 100%	x (activity was measured to be greater than 5.0 μM)	25 to 100%	x (activity was measured to be greater than 5.0 μM)
CC(=O)N1CC2(CCN(C3CCC3)CC2)c2cc(F)ccc21 [compound 916]	< 25%	x (activity was measured to be greater than 5.0 μM)	< 25%	x (activity was measured to be greater than 5.0 μM)
COc1ccc(C(=O)N2CCC(N3CCC4(CC3)CN(C(=O)N(C)C)c3ccc(F)cc34)CC2)cc1 [compound 917]	< 25%	x (activity was measured to be greater than 5.0 μM)	< 25%	x (activity was measured to be greater than 5.0 μM)
CCOC(=O)N1CCC(N2CCC3(CC2)CN(C(C)=O)c2c(C4CCCC4)cccc23)CC1 [compound 918]	< 25%	x (activity was measured to be greater than 5.0 μM)	25 to 100%	x (activity was measured to be greater than 5.0 μM)
CC(C)C1CCC(N2CCC3(CC2)CC(C(=O)O)c2ccccc23)CC1 (stereo not shown) [compound 919]	< 25%	x (activity was measured to be greater than 5.0 μM)	< 25%	x (activity was measured to be greater than 5.0 μM)
CN(C)C(=O)N1CC2(CCN(C3CCCN(C(=O)OCC(F)F)CC3)CC2)c2cc(F)ccc21 (stereo not shown) [compound 920]	25 to 100%	xxx (activity was measured to be less than 2.0 μM)	25 to 100%	xxx (activity was measured to be less than 2.0 μM)
CC(F)CC(=O)N1CCC(N2CCC3(CC2)CN(C(=O)N(C)C)c2ccc(F)cc23)CC1 (stereo not shown) [compound 921]	< 25%	x (activity was measured to be greater than 5.0 μM)	25 to 100%	x (activity was measured to be greater than 5.0 μM)
CC(=O)NC1CC2(CCN(C3CCCC3)CC2)c2ccccc21 (stereo not shown) [compound 922]	25 to 100%	x (activity was measured to be greater than 5.0 μM)	25 to 100%	x (activity was measured to be greater than 5.0 μM)
COC(=O)N1CC[C@@H](CN2CCC3(CC2)CN(C(C)=O)c2ccccc23)C1 [compound 923]	25 to 100%	xxx (activity was measured to be less than 2.0 μM)	25 to 100%	xx (activity was measured to be between 2.0 μM and 5.0 μM)
COCCN1CC2(CCN(C3CCCCC3)CC2)c2cc(F)ccc21 [compound 925]	25 to 100%	xxx (activity was measured to be less than 2.0 μM)	25 to 100%	xxx (activity was measured to be less than 2.0 μM)
CCOC(=O)C1CC1CN1CCC2(CC1)C[C@H](NC(C)=O)c1ccccc12 (stereo partly shown) [compound 926]	< 25%	x (activity was measured to be greater than 5.0 μM)	25 to 100%	x (activity was measured to be greater than 5.0 μM)
CCOC(=O)N1C2CCC1CC(N1CCC3(C[C@H](NC(C)=O)c4cc(F)ccc43)C1)C2 (stereo partly shown) [compound 928]	25 to 100%	xxx (activity was measured to be less than 2.0 μM)	25 to 100%	xxx (activity was measured to be less than 2.0 μM)
CC#CCOC(=O)N1CC[C@@H](CN2CCC3(CC2)CN(C(C)=O)c2cccc(C)c23)C1 [compound 929]	25 to 100%	xxx (activity was measured to be less than 2.0 μM)	25 to 100%	xxx (activity was measured to be less than 2.0 μM)
CCOC(=O)N1CCC(N2CCC3(CC2)CN(C(C)=O)c2c(C4=CCCC4)cccc23)CC1 [compound 930]	< 25%	x (activity was measured to be greater than 5.0 μM)	< 25%	x (activity was measured to be greater than 5.0 μM)
COc1cc2c(cc1OC)C1(CCN(CC3CCCCC3)CC1)C[C@@H]2N(C(C)=O)[C@@H](C)c1ccccc1 [compound 931]	< 25%	x (activity was measured to be greater than 5.0 μM)	< 25%	x (activity was measured to be greater than 5.0 μM)
CC(=O)N1CC2(CCN(C3CCN(C(=O)OC4CCOC4)CC3)CC2)c2ccccc21 (stereo not shown) [compound 932]	< 25%	x (activity was measured to be greater than 5.0 μM)	25 to 100%	x (activity was measured to be greater than 5.0 μM)
Cc1ccc2c(c1)C1(CCN(C3CC4CCC3C4)CC1)CN2C(=O)c1ccccc1 (stereo not shown) [compound 933]	< 25%	x (activity was measured to be greater than 5.0 μM)	< 25%	x (activity was measured to be greater than 5.0 μM)
CC(=O)N[C@H]1CC2(CCN(CC3CCCC3)CC2)c2ccccc21 [compound 934]	25 to 100%	xxx (activity was measured to be less than 2.0 μM)	25 to 100%	xx (activity was measured to be between 2.0 μM and 5.0 μM)
Cc1ccc2c(c1)/C(=N/O)CC21CCN(CC2C[C@H]3CCC2C3)CC1 (stereo partly shown) [compound 935]	25 to 100%	xxx (activity was measured to be less than 2.0 μM)	25 to 100%	x (activity was measured to be greater than 5.0 μM)
COC(=O)N1CCCC(CCN2CCC3(CCC(NC(C)=O)c4ccccc43)CC2)C1 (stereo not shown) [compound 936]	< 25%	x (activity was measured to be greater than 5.0 μM)	25 to 100%	xxx (activity was measured to be less than 2.0 μM)
